The results in this text go back to ChEMBL document CHEMBL5291721, “A preclinical secondary pharmacology resource illuminates target-adverse drug reaction associations of marketed drugs” (Nat Commun, 2023).

The structures appear in SMILES notation.

As a reminder, the AC50 is the concentration at which the activity in the assay is half-maximal. Higher therefore signals activity only at high concentration.

The target in one assay is T1, Adenosine receptor A1 (Homo sapiens, UniProt P30542).
T1 sequence (P30542 whole entry): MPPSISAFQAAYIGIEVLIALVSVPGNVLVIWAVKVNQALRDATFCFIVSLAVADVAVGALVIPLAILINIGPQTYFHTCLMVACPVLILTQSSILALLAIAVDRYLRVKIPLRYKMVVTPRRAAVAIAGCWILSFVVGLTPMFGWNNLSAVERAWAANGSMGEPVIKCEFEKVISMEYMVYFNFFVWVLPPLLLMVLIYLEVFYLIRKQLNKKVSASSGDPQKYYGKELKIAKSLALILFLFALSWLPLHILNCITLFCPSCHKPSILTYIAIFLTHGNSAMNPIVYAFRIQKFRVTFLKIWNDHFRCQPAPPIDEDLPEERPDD

The target in assay [1] is T2, Alpha-2B adrenergic receptor (Homo sapiens, UniProt P18089).
T2 sequence (P18089 whole entry): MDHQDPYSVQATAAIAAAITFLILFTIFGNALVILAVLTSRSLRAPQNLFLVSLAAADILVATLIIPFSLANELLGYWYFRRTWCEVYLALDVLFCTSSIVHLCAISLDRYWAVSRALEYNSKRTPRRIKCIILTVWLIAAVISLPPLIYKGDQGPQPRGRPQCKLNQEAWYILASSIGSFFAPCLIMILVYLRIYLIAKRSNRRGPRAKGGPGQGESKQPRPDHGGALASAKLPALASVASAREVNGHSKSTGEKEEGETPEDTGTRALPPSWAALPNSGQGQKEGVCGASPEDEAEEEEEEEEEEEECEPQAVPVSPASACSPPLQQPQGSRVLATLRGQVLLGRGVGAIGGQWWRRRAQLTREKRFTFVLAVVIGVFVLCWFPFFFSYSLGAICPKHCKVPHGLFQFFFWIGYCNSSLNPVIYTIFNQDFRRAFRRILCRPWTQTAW

Assay [2] has as its target T3, Alpha-2C adrenergic receptor (Homo sapiens, UniProt P18825).
T3 sequence (P18825 whole entry): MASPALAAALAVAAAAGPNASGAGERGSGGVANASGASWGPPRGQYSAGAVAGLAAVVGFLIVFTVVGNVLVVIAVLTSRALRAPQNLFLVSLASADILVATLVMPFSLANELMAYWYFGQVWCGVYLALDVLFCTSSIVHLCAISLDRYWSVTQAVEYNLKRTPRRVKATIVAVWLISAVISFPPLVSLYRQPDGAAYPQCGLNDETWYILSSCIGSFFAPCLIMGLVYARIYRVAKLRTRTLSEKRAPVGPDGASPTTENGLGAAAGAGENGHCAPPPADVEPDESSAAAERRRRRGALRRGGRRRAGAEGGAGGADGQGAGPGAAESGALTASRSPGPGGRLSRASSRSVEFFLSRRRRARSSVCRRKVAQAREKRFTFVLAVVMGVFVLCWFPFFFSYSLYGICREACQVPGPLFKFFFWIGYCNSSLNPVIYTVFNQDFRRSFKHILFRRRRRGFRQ
The assay is classed as functional.

The next assay addresses D(1A) dopamine receptor (Homo sapiens, UniProt P21728). The assay is classed as functional, cell-based.
The next assay concerns the target T4, Estrogen receptor (Homo sapiens, UniProt P03372).
T4 sequence (P03372 whole entry): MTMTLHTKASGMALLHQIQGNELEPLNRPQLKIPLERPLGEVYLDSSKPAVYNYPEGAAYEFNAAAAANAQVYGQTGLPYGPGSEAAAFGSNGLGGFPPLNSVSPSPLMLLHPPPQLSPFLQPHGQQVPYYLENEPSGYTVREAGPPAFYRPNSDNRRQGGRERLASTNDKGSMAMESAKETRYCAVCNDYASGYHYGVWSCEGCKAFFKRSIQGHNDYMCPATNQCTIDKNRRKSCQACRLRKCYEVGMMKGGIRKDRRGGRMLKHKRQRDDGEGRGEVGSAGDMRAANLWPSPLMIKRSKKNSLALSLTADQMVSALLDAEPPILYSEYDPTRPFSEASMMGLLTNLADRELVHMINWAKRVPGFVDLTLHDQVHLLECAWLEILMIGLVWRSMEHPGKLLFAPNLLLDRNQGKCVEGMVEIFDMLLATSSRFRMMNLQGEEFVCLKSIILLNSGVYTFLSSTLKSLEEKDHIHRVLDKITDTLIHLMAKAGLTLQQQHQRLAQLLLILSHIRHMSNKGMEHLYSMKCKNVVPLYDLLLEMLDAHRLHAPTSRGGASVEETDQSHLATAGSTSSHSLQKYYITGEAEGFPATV

For assay [3], the target named is T5, Neuropeptide Y receptor type 1 (Homo sapiens, UniProt P25929).
T5 sequence (P25929 whole entry): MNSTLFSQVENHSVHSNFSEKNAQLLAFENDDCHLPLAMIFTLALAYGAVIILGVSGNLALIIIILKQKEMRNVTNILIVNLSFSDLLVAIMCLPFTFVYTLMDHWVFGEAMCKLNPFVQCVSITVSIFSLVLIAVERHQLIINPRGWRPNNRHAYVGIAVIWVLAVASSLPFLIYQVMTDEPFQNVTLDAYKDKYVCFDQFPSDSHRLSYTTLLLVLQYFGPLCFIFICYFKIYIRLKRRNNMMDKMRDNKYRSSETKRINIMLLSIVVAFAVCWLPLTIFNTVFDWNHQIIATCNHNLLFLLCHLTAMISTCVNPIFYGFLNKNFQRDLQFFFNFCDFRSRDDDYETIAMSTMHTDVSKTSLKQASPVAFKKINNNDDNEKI

Assay [4] addresses Delta-type opioid receptor (Homo sapiens, UniProt P41143).
Assay [5] deals with cGMP-inhibited 3',5'-cyclic phosphodiesterase 3A (Homo sapiens, UniProt Q14432). The assay is classed as functional.
Sequence of cGMP-inhibited 3',5'-cyclic phosphodiesterase 3A (Q14432 whole entry): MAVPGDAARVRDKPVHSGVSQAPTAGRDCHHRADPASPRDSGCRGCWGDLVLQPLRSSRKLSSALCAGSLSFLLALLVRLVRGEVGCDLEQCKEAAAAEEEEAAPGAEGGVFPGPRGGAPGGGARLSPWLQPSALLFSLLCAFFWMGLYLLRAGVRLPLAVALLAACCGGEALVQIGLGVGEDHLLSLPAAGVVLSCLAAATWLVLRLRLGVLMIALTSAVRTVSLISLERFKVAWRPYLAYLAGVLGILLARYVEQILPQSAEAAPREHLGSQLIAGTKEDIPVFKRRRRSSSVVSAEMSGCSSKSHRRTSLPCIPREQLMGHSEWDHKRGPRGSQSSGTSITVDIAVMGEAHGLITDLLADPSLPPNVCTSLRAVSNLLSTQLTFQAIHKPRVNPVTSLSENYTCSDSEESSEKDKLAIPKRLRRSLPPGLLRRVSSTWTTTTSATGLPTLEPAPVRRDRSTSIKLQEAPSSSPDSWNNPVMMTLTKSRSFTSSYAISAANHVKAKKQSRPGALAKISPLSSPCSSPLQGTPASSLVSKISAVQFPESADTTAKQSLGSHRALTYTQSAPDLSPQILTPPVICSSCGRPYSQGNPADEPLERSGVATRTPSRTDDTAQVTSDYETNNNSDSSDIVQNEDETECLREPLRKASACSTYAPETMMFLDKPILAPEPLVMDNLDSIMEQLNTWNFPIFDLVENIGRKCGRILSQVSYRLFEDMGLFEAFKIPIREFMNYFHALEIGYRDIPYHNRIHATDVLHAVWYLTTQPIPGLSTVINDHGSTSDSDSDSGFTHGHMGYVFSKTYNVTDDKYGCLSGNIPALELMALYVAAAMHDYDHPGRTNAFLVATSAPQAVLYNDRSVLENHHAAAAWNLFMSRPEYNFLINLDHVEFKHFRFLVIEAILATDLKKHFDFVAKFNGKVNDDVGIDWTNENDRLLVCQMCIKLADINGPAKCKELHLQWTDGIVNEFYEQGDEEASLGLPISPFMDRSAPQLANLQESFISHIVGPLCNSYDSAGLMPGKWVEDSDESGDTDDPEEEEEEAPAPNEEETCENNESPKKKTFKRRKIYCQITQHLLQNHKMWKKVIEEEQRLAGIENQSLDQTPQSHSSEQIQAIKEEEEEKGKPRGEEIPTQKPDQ
The target of a further assay is Histamine H3 receptor (Homo sapiens, UniProt Q9Y5N1).
Sequence of Histamine H3 receptor (Q9Y5N1 whole entry): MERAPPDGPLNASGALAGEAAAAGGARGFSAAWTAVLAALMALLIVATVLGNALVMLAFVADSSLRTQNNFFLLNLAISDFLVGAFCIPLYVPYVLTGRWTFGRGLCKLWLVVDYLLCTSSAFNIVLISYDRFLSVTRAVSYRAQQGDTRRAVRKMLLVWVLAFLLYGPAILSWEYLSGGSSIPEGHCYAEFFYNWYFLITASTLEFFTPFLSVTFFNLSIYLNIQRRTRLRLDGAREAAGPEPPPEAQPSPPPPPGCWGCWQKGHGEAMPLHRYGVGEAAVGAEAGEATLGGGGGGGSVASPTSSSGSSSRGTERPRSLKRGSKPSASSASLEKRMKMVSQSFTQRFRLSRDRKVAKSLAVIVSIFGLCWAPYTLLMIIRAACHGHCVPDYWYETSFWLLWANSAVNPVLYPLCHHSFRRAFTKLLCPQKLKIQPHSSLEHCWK
The target in assay [6] is 3',5'-cyclic-AMP phosphodiesterase 4D (Homo sapiens, UniProt Q08499). It is filed as functional.
Sequence of 3',5'-cyclic-AMP phosphodiesterase 4D (Q08499 whole entry): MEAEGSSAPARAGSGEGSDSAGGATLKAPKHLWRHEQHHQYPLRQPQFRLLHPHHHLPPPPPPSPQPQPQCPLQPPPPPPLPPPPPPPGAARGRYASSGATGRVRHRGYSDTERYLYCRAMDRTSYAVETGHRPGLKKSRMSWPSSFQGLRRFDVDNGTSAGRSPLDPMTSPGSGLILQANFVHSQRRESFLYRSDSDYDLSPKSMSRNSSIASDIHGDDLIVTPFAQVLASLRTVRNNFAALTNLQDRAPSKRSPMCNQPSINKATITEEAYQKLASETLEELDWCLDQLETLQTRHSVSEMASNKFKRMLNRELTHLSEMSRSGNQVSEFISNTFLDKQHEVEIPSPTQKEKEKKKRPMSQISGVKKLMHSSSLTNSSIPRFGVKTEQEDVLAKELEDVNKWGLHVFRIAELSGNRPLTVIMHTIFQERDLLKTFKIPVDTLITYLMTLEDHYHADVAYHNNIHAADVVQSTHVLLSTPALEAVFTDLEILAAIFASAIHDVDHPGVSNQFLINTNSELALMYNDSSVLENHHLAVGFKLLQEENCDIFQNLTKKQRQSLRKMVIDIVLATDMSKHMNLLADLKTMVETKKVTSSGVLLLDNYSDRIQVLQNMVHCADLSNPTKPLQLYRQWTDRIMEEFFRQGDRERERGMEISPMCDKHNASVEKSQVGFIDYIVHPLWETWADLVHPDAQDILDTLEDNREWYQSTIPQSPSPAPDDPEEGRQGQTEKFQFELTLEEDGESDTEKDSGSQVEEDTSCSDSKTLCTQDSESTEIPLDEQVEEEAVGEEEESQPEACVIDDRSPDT
Further: assay procedure not described here.

Sequence of D(1A) dopamine receptor (P21728 whole entry): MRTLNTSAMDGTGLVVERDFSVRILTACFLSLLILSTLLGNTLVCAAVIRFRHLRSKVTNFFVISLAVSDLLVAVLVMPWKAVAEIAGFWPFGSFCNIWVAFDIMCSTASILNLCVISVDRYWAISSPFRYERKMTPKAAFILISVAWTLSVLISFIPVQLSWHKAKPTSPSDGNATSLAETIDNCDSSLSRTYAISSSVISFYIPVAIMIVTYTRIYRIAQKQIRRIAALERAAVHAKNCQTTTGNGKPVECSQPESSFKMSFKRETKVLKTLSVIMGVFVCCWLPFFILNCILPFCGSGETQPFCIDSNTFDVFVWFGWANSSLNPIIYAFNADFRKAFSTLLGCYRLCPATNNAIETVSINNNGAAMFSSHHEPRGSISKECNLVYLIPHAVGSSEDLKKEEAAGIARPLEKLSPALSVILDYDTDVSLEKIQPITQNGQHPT
Sequence of Delta-type opioid receptor (P41143 whole entry): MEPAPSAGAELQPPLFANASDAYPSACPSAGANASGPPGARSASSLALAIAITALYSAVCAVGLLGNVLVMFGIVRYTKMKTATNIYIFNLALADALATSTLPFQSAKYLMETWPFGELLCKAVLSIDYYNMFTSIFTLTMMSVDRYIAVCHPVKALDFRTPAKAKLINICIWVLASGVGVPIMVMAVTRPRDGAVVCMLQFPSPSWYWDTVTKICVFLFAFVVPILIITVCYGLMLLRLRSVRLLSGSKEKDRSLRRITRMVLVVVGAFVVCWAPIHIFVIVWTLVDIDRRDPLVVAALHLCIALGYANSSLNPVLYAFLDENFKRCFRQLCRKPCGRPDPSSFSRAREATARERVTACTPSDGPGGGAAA

Regarding `CN1CC(=O)N2[C@H](c3ccc4c(c3)OCO4)c3[nH]c4ccccc4c3C[C@@H]2C1=O`, the AC50 on Adenosine receptor A1 was more than 30 µM; in assay [1], more than 10 µM; in [2], more than 10 µM; at D(1A) dopamine receptor, more than 10 µM; on Estrogen receptor, more than 30 µM; in [3], more than 30 µM. In addition, the values for the AC50 (in [4]; in [5]; at Histamine H3 receptor) were more than 30 µM, more than 30 µM and more than 10 µM, respectively.

As for `O=C(C[S+]([O-])C(c1ccccc1)c1ccccc1)NO` (centres undefined), the AC50 (at Adenosine receptor A1; in assay [1]; in assay [2]; at D(1A) dopamine receptor; on Estrogen receptor; in assay [3]) was more than 30 µM each time. Besides, the AC50 was more than 30 µM in assay [4], 8.9 µM in assay [6], more than 10 µM in assay [5] and more than 30 µM at Histamine H3 receptor.

As to `COc1ccc2cccc(CCNC(C)=O)c2c1` [AGOMELATINE], the AC50 at Adenosine receptor A1 was more than 30 µM; in [1] it was more than 10 µM; in [2], more than 10 µM; at D(1A) dopamine receptor, more than 10 µM; at Estrogen receptor, more than 30 µM; in assay [3], more than 30 µM. For the same molecule, the AC50 in [4] was more than 30 µM; in [6], more than 30 µM; in assay [5], more than 30 µM; at Histamine H3 receptor it was more than 10 µM.

Consider `NC(CO)C(=O)NNCc1ccc(O)c(O)c1O` (centres undefined) [BENSERAZIDE], for which the AC50 was more than 30 µM at Adenosine receptor A1; more than 10 µM in assay [1]; more than 10 µM in [2]; more than 10 µM on D(1A) dopamine receptor; 1.72 µM at Estrogen receptor; 5.67 µM in [3]. The AC50 in [4] is 30 µM; in assay [6], more than 30 µM; in [5] it was more than 30 µM; at Histamine H3 receptor it was more than 10 µM.

On to `CCC(C(=O)O)c1ccc(CC(C)C)cc1` (centres undefined) [BUTIBUFEN], for which the half-maximal activity concentration (AC50) (at Adenosine receptor A1; in assay [1]; in assay [2]; at D(1A) dopamine receptor; on Estrogen receptor; in assay [3]) was more than 30 µM in each case. Moreover, the AC50 (in assay [4]; in [6]; in assay [5]; on Histamine H3 receptor) was more than 30 µM throughout.

For the molecule `CN(C)C(=O)OC1N=C(c2ccccc2)c2cc(Cl)ccc2N(C)C1=O` (centres undefined) [CAMAZEPAM], the AC50 on Adenosine receptor A1 was more than 30 µM; in assay [1], more than 10 µM; in assay [2], more than 10 µM; on D(1A) dopamine receptor it was more than 10 µM; at Estrogen receptor it was more than 30 µM; in assay [3], more than 30 µM. Moreover, the AC50 in assay [4] was more than 10 µM; in [6], 4.3 µM; in [5] it was more than 30 µM; at Histamine H3 receptor, more than 10 µM.

In the case of `CCCCCOC(=O)Nc1nc(=O)n([C@@H]2O[C@H](C)[C@@H](O)[C@H]2O)cc1F` [CAPECITABINE], the AC50 (on Adenosine receptor A1; in assay [1]; in [2]; on D(1A) dopamine receptor; at Estrogen receptor; in [3]) was more than 30 µM in each case. Further, the AC50 (in [4]; in [6]; in [5]; at Histamine H3 receptor) was more than 30 µM each time.

Regarding `CCOc1cc(N)c([N+](=O)[O-])cc1C(=O)NC1CCN(CC2CC=CCC2)CC1` (centres undefined) [CINITAPRIDE], the AC50 at Adenosine receptor A1 was more than 30 µM; in assay [1] it was 9.3 µM; in assay [2], 1.3 µM; on D(1A) dopamine receptor it was more than 30 µM; at Estrogen receptor, more than 30 µM; in assay [3], more than 30 µM. The AC50 in [4] is more than 30 µM; in assay [6], more than 30 µM; in [5] it was more than 30 µM; on Histamine H3 receptor, 5.9 µM.

Regarding `COC(=O)[C@H]1[C@@H](OC(=O)c2ccccc2)C[C@@H]2CC[C@H]1N2C` [COCAINE], the AC50 (on Adenosine receptor A1; in [1]; in [2]; on D(1A) dopamine receptor; on Estrogen receptor; in [3]) was more than 30 µM throughout. Besides, the AC50 (in [4]; in [6]; in assay [5]; on Histamine H3 receptor) was more than 30 µM throughout.

Take `CN1CC[C@]23CCCC[C@H]2[C@H]1Cc1ccc(O)cc13` [LEVORPHANOL]: the AC50 is more than 10 µM at Adenosine receptor A1; more than 30 µM in assay [1]; more than 30 µM in assay [2]; more than 30 µM on D(1A) dopamine receptor; more than 10 µM on Estrogen receptor; more than 10 µM in assay [3]. The AC50 in assay [4], in [6] and in [5] was more than 30 µM throughout.

Turning to `CC1=CC(=O)c2ccccc2C1=O` [MENADIONE], the AC50 on Adenosine receptor A1 was more than 30 µM; in [1] it was more than 10 µM; in assay [2] it was more than 30 µM; at D(1A) dopamine receptor, more than 10 µM; at Estrogen receptor, more than 30 µM; in assay [3], more than 10 µM. For the same molecule, the AC50 in assay [4], in assay [6] and in assay [5] was more than 30 µM each time.

As to `CN1CCCN=C1COC(=O)C(O)(c1ccccc1)C1CCCCC1` (centres undefined) [OXYPHENCYCLIMINE], the AC50 (on Adenosine receptor A1; in assay [1]; in [2]; at D(1A) dopamine receptor; at Estrogen receptor; in assay [3]) was more than 10 µM each time. Besides, the AC50 in assay [4], in [6] and in assay [5] was more than 30 µM in each case.

Consider `CN1CCC2=C(C1)C(c1ccccc1)c1ccccc12` (centres undefined) [PHENINDAMINE], for which the AC50 on Adenosine receptor A1 is more than 10 µM; in [1], more than 10 µM; in assay [2] it was 12 µM; at D(1A) dopamine receptor, more than 10 µM; at Estrogen receptor it was more than 30 µM; in assay [3] it was more than 10 µM. The AC50 in assay [4] was more than 30 µM; in assay [6], 8.7 µM; in [5], more than 30 µM.

Regarding `Cc1c(C(=O)Nc2ccc(N3C[C@@H](C)O[C@@H](C)C3)nc2)cccc1-c1ccc(OC(F)(F)F)cc1` [SONIDEGIB], the AC50 is more than 30 µM at Adenosine receptor A1; more than 10 µM in assay [1]; more than 10 µM in assay [2]; more than 30 µM at Estrogen receptor; more than 30 µM in assay [3]; more than 10 µM in assay [4]. The results for the AC50 (in assay [6]; in [5]; on Histamine H3 receptor) were more than 30 µM, more than 30 µM and more than 10 µM, respectively.
